The test in a line: Kill rate of peracetic acid 400-660 ppm with and without adjuvant. It counts as cell-based. As to conditions: peracetic acid 400-660 ppm in aqueous solution. The text has this:
Use of oxidative lysing agents such as peracetic acid in aqueous solution at concentration(s) ranging from 400-660 ppm provided only moderate kill rates with log reductions of 4-5.5. However, use of peracetic acid at the same concentrations with the addition of the adjuvant herein described produced improved kill rates up to complete destruction of the species with log reductions of 6 or recovery rates of 0.

SMILES strings stand for the structures.

Take `CC(=O)OO` [peracetic acid]: the log reductions was 4-5.5 log.

For the origin of these results see US9351488B2, “Peracetic acid composition” (PEROXYCHEM LLC, priority 2006, dated 2016).
